We go through 13 compounds from patent US6399574B1 (priority 1997, dated 2002).

A word on the IC50: it is the concentration at which inhibition is half-maximal. The low end stands for higher potency, the high end for lower potency. For orientation: half-life means the time needed for the level to fall by half in the phase considered. Low values mean fast loss, high ones slow loss.

Where no end group is shown, it is not given here.

One data set deals with NMDA receptor (spermine-stimulated [^3H]MK-801 binding).
Conditions: not given
Take “(A^7,10,14)3-17: Con G derivative, A at 7, 10, 14, residues 1-2 deleted (EELQANQALIRAKSN; ends and bridges not checked; UniProt P07231 81-97, looked up, variant del1-2 E7A E10A E14A)”: the “IC50 (μM)” value is “inactive”.
Still for that read-out and setting: next, “(A^7,10,14)6-17: Con G derivative, A at 7, 10, 14, residues 1-5 deleted (QANQALIRAKSN; ends and bridges not checked; UniProt P07231 81-97, looked up, variant del1-5 E7A E10A E14A)”: “inactive”; “(A^7,10,14)5-17: Con G derivative, A at 7, 10, 14, residues 1-4 deleted (LQANQALIRAKSN; ends and bridges not checked; UniProt P07231 81-97, looked up, variant del1-4 E7A E10A E14A)”: “inactive”.
Compound “(A^7,10,14)1-14: Con G derivative, A at 7, 10, 14, residues 15-17 deleted (GEEELQANQALIRA; ends and bridges not checked; UniProt P07231 81-97, looked up, variant E7A E10A E14A del15-17)” returned a half-maximal inhibitory concentration (IC50) of 0.232 µM.
As for “(A^7,10,14)2-17: Con G derivative, A at 7, 10, 14, residue 1 deleted (EEELQANQALIRAKSN; ends and bridges not checked; UniProt P07231 81-97, looked up, variant del1-1 E7A E10A E14A)”, the “IC50 (μM)” value is “inactive”.
In turn, “A^7,Y^10: Con G derivative, A at position 7 and Y at position 10 (GEEELQANQYLIREKSN; ends and bridges not checked; UniProt P07231 81-97, looked up, variant E7A E10Y)” displayed a half-maximal inhibitory concentration (IC50) of 0.079 µM.
The same measure, in the same setting: next, “(A^7,10,14)1-15: Con G derivative, A at 7, 10, 14, residues 16-17 deleted (GEEELQANQALIRAK; ends and bridges not checked; UniProt P07231 81-97, looked up, variant E7A E10A E14A del16-17)”: 0.034 µM; “(A^7,10)1-12: Con G derivative, A at 7 and 10, residues 13-17 deleted (GEEELQANQALI; ends and bridges not checked; UniProt P07231 81-97, looked up, variant E7A E10A del13-17)”: 0.3 µM; “(A^7,10)1-13: Con G derivative, A at 7 and 10, residues 14-17 deleted (GEEELQANQALIR; ends and bridges not checked; UniProt P07231 81-97, looked up, variant E7A E10A del14-17)”: 0.253 µM.
In the case of “(A^7,10,14)1-16: Con G derivative, A at 7, 10, 14, residue 17 deleted (GEEELQANQALIRAKS; ends and bridges not checked; UniProt P07231 81-97, looked up, variant E7A E10A E14A del17-17)”, the IC50 is 0.037 µM.
With “A^7,10,14: Con G derivative, A at positions 7, 10 and 14 (GEEELQANQALIRAKSN; ends and bridges not checked; UniProt P07231 81-97, looked up, variant E7A E10A E14A)”, the IC50 turned out to be 0.088 µM.
For “(A^7,10,14)4-17: Con G derivative, A at 7, 10, 14, residues 1-3 deleted (ELQANQALIRAKSN; ends and bridges not checked; UniProt P07231 81-97, looked up, variant del1-3 E7A E10A E14A)”, the “IC50 (μM)” value was “inactive”.

Tested on in a further data set: not given
The conditions noted are these: mouse, tissue homogenate.
`CC[C@H](C)[C@H](NC(=O)[C@H](CC(N)=O)NC(=O)[C@H](CCC(=O)O)NC(=O)[C@H](CCCNC(=N)N)NC(=O)[C@H](C)NC(=O)[C@H](CC(C)C)NC(=O)[C@H](CCC(=O)O)NC(=O)[C@H](C)NC(=O)[C@H](C)NC(=O)[C@H](CCSC)NC(=O)[C@H](CCCCN)NC(=O)[C@H](C)NC(=O)[C@@H](NC(=O)[C@H](CCC(=O)O)NC(=O)[C@H](CCC(=O)O)NC(=O)[C@H](CCC(=O)O)NC(=O)CN)C(C)C)C(=O)N[C@@H](C)C(=O)N[C@@H](CCCCN)C(=O)NCC(=O)N[C@H]1CSSC[C@@H](C(=O)N[C@@H](Cc2ccc(O)cc2)C(=O)N2CCC[C@H]2C(=O)O)NC(=O)[C@H](CC(N)=O)NC(=O)[C@H](C(C)C)NC(=O)[C@H](CCCCN)NC1=O` [ECon R] showed a half-life of 2.4 min.
